Test results from US8614168B2, “Use of azoles for increasing the abiotic stress resistance of plants or plant parts” (Monheim, priority 2008, dated 2013).

Assays:
[1] = system: BRSNS: oilseed rape (Brassica napus); test: Dry stress test on potted plants, spray application, oilseed rape; assay type: in vivo; settings: individual substance
Protocol: (§1) Seeds of monocotyledonous and dicotyledonous crop plants are placed in sandy loam in wood-fiber pots, covered with soil and cultivated in a greenhouse under good growth conditions. The test plants are treated in the early leaf stage (BBCH10-BBCH13, BBCH-Monografie der Biologische Bundesanstalt für Land and Forstwirtschaft, 2nd edition, 2001), i.e. 2-3 weeks after sowing according to the species. To ensure uniform water supply before commencement of stress, the potted plants were supplied with the maximum amount of water immediately beforehand by dam irrigation and transferred in plastic inserts in order to prevent subsequent, excessively rapid drying. The inventive compounds, formulated in the form of wettable powders (WP), are then sprayed onto the green parts of the plants as an aqueous suspension at an equivalent water application rate of 600 l/ha with addition of 0.2% wetting agent (agrotin). Substance application is followed immediately by stress treatment of the plants (cold or dry stress). Dry stress is induced by slow drying under the following conditions: • “day”: 14 hours with illumination at 26° C. • “night”: 10 hours without illumination at 18° C. The cold stress phase is ended after exactly 14 days. The duration of the dry stress phase is guided mainly by the state of the untreated, stressed control plants and thus varies from crop to crop. It is ended (by re-irrigating) as soon as irreversible damage is observed on the untreated, stressed control plants. In the case of dicotyledonous crops, for example oilseed rape and soya, the duration of the dry stress phase is between 4 and 6 days, in the case of monocotyledonous crops, for example wheat, barley or corn, between 6 and 10 days. The end of the stress phase is followed by a 7-day recovery phase, during which the plants are once again kept under good growth conditions in a greenhouse. In order to rule out any influence of the effects observed by any fungicidal action of the test compounds, it is additionally ensured that the tests proceed without fungal infection and without infection pressure. After the recovery phase has ended, the intensities of damage are rated visually compared to untreated, unstressed controls of the same age (in the case of dry stress) or the same growth stage (in the case of cold stress). The intensity of damage is first assessed as a percentage (100%=plants have died, 0%=like control plants). These values are then used to calculate the efficacy of the test compounds (=percentage reduction in the intensity of damage as a result of substance application) by the following formula: [formula] EF: efficacy (%) DVus: damage value of the untreated, stressed control DVts: damage value of the plants treated with test compound The table below lists mean values in each case from three results of the same test.

[2] = system: ZEAMX: corn (Zea mais); test: Dry stress test on potted plants, spray application, corn; assay type: in vivo; settings: individual substance
Protocol: as §1

[3] = system: crop plants, for example oilseed rape; test: Stunting: mean plant height after azole application; assay type: in vivo; settings: dosage 250 g/ha, comparative 11.7 cm
From the text: In the case of application of the inventive azoles, this stunting occurs to a lower or non-undesirable degree: […]

[4] = system: ABA 8′-hydroxylase; settings: studies to date (Kitahata et al., 2005; Saito et al., 2006); cited from earlier work
[5] = system: HORVS barley (Hordeum vulgare); test: Dry stress test on potted plants, spray application, barley; assay type: in vivo; settings: 100 g/ha, individual substance
Protocol: Seeds of monocotyledonous and dicotyledonous crop plants are placed in sandy loam in wood-fiber pots, covered with soil and cultivated in a greenhouse under good growth conditions. The test plants are treated in the early leaf stage (BBCH10-BBCH13, BBCH-Monografie der Biologische Bundesanstalt für Land and Forstwirtschaft, 2nd edition, 2001), i.e. 2-3 weeks after sowing according to the species. To ensure uniform water supply before commencement of stress, the potted plants were supplied with the maximum amount of water immediately beforehand by dam irrigation and transferred in plastic inserts in order to prevent subsequent, excessively rapid drying. The inventive compounds, formulated in the form of wettable powders (WP), are then sprayed onto the green parts of the plants as an aqueous suspension at an equivalent water application rate of 600 l/ha with addition of 0.2% wetting agent (agrotin). Substance application is followed immediately by stress treatment of the plants (cold or dry stress). Dry stress is induced by slow drying under the following conditions: • “day”: 14 hours with illumination at 26° C. • “night”: 10 hours without illumination at 18° C. The cold stress phase is ended after exactly 14 days. […] The intensity of damage is first assessed as a percentage (100%=plants have died, 0%=like control plants). […]

Row | SMILES | efficacy (percentage reduction in the intensity of damage) ([1]; 100 g/ha) | efficacy (percentage reduction in the intensity of damage) ([2]; 250 g/ha) | Mean plant height (cm) [3] | efficacy (percentage reduction in the intensity of damage) ([1]; 250 g/ha) | inhibiting action on abscisic acid catabolism or ABA 8′-hydroxylase [4] | efficacy (percentage reduction in the intensity of damage) ([2]; 100 g/ha) | efficacy (percentage reduction in the intensity of damage) [5]
1 | CC1(C)CCC(Cc2ccc(Cl)cc2)C1(O)Cn1cncn1 (stereo not shown) [metconazole] | 50% | – | – | – | – | – | –
2 | CC(C)(C)C(O)(CCc1ccc(Cl)cc1)Cn1cncn1 (stereo not shown) [tebuconazole] | 27% | 30% | 10.2 cm | 42% | only slight inhibiting action, if any | – | –
3 | OC(Cc1ccccc1Cl)(Cn1nc[nH]c1=S)C1(Cl)CC1 (stereo not shown) [prothioconazole] | 12% | – | 10.2 cm | – | – | 12% | 11%
4 | Fc1ccc([C@]2(Cn3cncn3)O[C@H]2c2ccccc2Cl)cc1 (racemic) [epoxiconazole] | 35% | – | – | – | – | 11% | 17%
5 | CC(C1CC1)C(O)(Cn1cncn1)c1ccc(Cl)cc1 (stereo not shown) [cyproconazole] | – | 37% | – | 42% | – | 40% | –
